Tests used:
Type in all cases: cell-based, Human
[1] = system: JunD target genes protein levels in DU145 vector cells; experiment: Western blot of JunD target gene protein levels after JQ1 treatment; conditions: 5 μM JQ1, 72 hrs
Experimental: (§1) DU145 vector and DU145 JunD overexpressed (D1) cells plated at a density of 2×10^4 cells/ml in 24 well plates (for cell proliferation assays) or at a density of 1.5×10^5 cell/ml in 6 well plates (for cell lysates) were treated in the presence or absence of 5 μM JQ1 for 72 hrs. Control cells were treated with DMSO. Cells were then counted using a hemacytometer and cell lysates were collected for western blot analyses.
(§2) Following siRNA transient transfections, PC3 and DU145 cell lysates from several independent experiments were collected as previously described. In brief, equal amounts of protein (50 μg) were separated by electrophoresis using 10% SDS-polyacrylamide gels and then transferred to PVDF membranes (Millipore, Billerica, Mass.). After being blocked with 5% milk, the membranes were incubated with specific primary antibodies (1:800 dilution for JunD; 1:500 dilution for anti-PRDX3, anti-CDK2, anti-CDK4, anti-KIF2C, anti-EIF1, anti-PEA15, anti-CCNA1, anti-ADRA2B, anti-TCF4, anti-ANAX2, anti-ELMO2, and anti-ERO1-La; 1:200 dilution for anti-PLCD4, anti-c-MYC, and anti-PTMA; 1:3000 dilution for anti-α-Tubulin) overnight at 4° C. and then incubated with appropriate horseradish peroxidase-conjugated secondary antibody for 1 h. […] The relative intensities of specific protein were determined by ImageJ software (NIH version: 1.8.0_112).

[2] = system: JunD target genes protein levels in DU145 JunD overexpressed (D1) cells; experiment: as above; conditions: 5 μM JQ1, 72 hrs
Experimental: as §1, §2

[3] = system: DU145 JunD overexpressed (D1) cells; experiment: Cell proliferation assay (cell counting) after JQ1 treatment; conditions: 5 μM JQ1, 72 hrs, DU145 D1 (JunD overexpressing) cells, vs DMSO control, p<0.001
Experimental: (§3) Human prostate cancer cell lines (PC3 and DU145) were purchased from ATCC (Manassas, Va.). Cells were cultured in the recommended growth media [MEM media supplemented with 5% fetal bovine serum (FBS)] in 100% humidity at 37° C. with 5% CO2 as described previously. DU145 cells overexpressing JunD (D1), generated from a previous study were cultured as above, with an addition of […] G418 [29].
as §1

DU145 vector cells = experiment: as above; conditions: 5 μM JQ1, 72 hrs, vs DMSO control, p<0.001
Experimental: as §3, §1

Question: `Cc1sc2c(c1C)C(c1ccc(Cl)cc1)=N[C@@H](CC(=O)OC(C)(C)C)c1nnc(C)n1-2` [JQ1] was tested. Which “JunD target genes protein levels” value [1] did it give?
Answer: decreased

Question: What about the “JunD target genes protein levels” value [2] of the same molecule?
Answer: decreased

Question: And the cell proliferation [3]?
Answer: significantly reduced

Question: And the cell proliferation (DU145 vector cells)?
Answer: significantly reduced

Source: patent US20220002816A1, “IDENTIFICATION OF JUND TARGET GENES FOR INHIBITION OF PROSTATE CANCER CELL GROWTH” (Center for Cancer Research & Therapeutic Development, Clark …, priority 2018, published 2022)
